Reference: PubChem BioAssay (NCI)
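A five-concentration, 48-hour dose response in 96-well plates underlies each endpoint, interpolated linearly between surrounding concentrations. GI50: concentration for 50% inhibition of growth. Definition used: TGI = concentration required for complete inhibition of growth.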

Columns and labels:
Assay in all cases: growth of human tumour cells (NCI), 48 h
786-0 renal = test system: 786-0 renal
A498 renal = test system: A498 renal
A549 NSCLC = test system: A549 NSCLC
ACHN renal = test system: ACHN renal
BT-549 breast = test system: BT-549 breast
CCRF-CEM leukemia = test system: CCRF-CEM leukemia
COLO 205 colon = test system: COLO 205 colon
DU-145 prostate = test system: DU-145 prostate
EKVX NSCLC = test system: EKVX NSCLC
HCT-116 colon = test system: HCT-116 colon
HCT-15 colon = test system: HCT-15 colon
HL-60(TB) leukemia = test system: HL-60(TB) leukemia
HOP-62 NSCLC = test system: HOP-62 NSCLC
HOP-92 NSCLC = test system: HOP-92 NSCLC
HS 578T breast = test system: HS 578T breast
HT29 colon = test system: HT29 colon
IGROV1 ovarian = test system: IGROV1 ovarian
K-562 leukemia = test system: K-562 leukemia
KM12 colon = test system: KM12 colon
LOX IMVI melanoma = test system: LOX IMVI melanoma
M14 melanoma = test system: M14 melanoma
MALME-3M melanoma = test system: MALME-3M melanoma
MCF7 breast = test system: MCF7 breast
MDA-MB-231 breast = test system: MDA-MB-231 breast
MDA-MB-435 = test system: MDA-MB-435
MOLT-4 leukemia = test system: MOLT-4 leukemia
NCI-H226 lung = test system: NCI-H226 lung
NCI-H23 lung = test system: NCI-H23 lung
NCI-H460 lung = test system: NCI-H460 lung
NCI/ADR-RES ovarian = test system: NCI/ADR-RES ovarian
OVCAR-3 ovarian = test system: OVCAR-3 ovarian
OVCAR-4 ovarian = test system: OVCAR-4 ovarian
OVCAR-5 ovarian = test system: OVCAR-5 ovarian
OVCAR-8 ovarian = test system: OVCAR-8 ovarian
PC-3 prostate = test system: PC-3 prostate
RPMI-8226 leukemia = test system: RPMI-8226 leukemia
RXF 393 renal = test system: RXF 393 renal
SF-268 CNS = test system: SF-268 CNS
SF-295 CNS = test system: SF-295 CNS
SF-539 CNS = test system: SF-539 CNS
SK-MEL-2 melanoma = test system: SK-MEL-2 melanoma
SK-MEL-28 melanoma = test system: SK-MEL-28 melanoma
SK-MEL-5 melanoma = test system: SK-MEL-5 melanoma
SK-OV-3 ovarian = test system: SK-OV-3 ovarian
SN12C renal = test system: SN12C renal
SNB-19 CNS = test system: SNB-19 CNS
SNB-75 CNS = test system: SNB-75 CNS
SR leukemia = test system: SR leukemia
SW-620 colon = test system: SW-620 colon
T-47D breast = test system: T-47D breast
TK-10 renal = test system: TK-10 renal
U251 CNS = test system: U251 CNS
UACC-257 melanoma = test system: UACC-257 melanoma
UACC-62 melanoma = test system: UACC-62 melanoma
UO-31 renal = test system: UO-31 renal
CAKI-1 renal = test system: CAKI-1 renal
HCC-2998 colon = test system: HCC-2998 colon
NCI-H522 lung = test system: NCI-H522 lung

SMILES: CNC(=O)OCC1=C(COC(=O)NC)C(C)N(c2ccc(OC)cc2)C1 (configuration not stated)
- TGI (786-0 renal): > 100 µM
- TGI (A498 renal): 1.74 µM
- TGI (A549 NSCLC): > 100 µM
- TGI (ACHN renal): > 100 µM
- TGI (BT-549 breast): > 100 µM
- TGI (CCRF-CEM leukemia): > 100 µM
- TGI (COLO 205 colon): > 100 µM
- TGI (DU-145 prostate): > 100 µM
- TGI (EKVX NSCLC): > 100 µM
- TGI (HCT-116 colon): > 100 µM
- TGI (HCT-15 colon): > 100 µM
- TGI (HL-60(TB) leukemia): 55.2 µM
- TGI (HOP-62 NSCLC): > 100 µM
- TGI (HOP-92 NSCLC): > 100 µM
- TGI (HS 578T breast): > 100 µM
- TGI (HT29 colon): > 100 µM
- TGI (IGROV1 ovarian): > 100 µM
- TGI (K-562 leukemia): > 100 µM
- TGI (KM12 colon): > 100 µM
- TGI (LOX IMVI melanoma): > 100 µM
- TGI (M14 melanoma): > 100 µM
- TGI (MALME-3M melanoma): > 100 µM
- TGI (MCF7 breast): > 100 µM
- TGI (MDA-MB-231 breast): > 100 µM
- TGI (MDA-MB-435): > 100 µM
- TGI (MOLT-4 leukemia): > 100 µM
- TGI (NCI-H226 lung): 6.21 µM
- TGI (NCI-H23 lung): > 100 µM
- TGI (NCI-H460 lung): > 100 µM
- TGI (NCI/ADR-RES ovarian): > 100 µM
- TGI (OVCAR-3 ovarian): > 100 µM
- TGI (OVCAR-4 ovarian): > 100 µM
- TGI (OVCAR-5 ovarian): > 100 µM
- TGI (OVCAR-8 ovarian): > 100 µM
- TGI (PC-3 prostate): > 100 µM
- TGI (RPMI-8226 leukemia): > 100 µM
- TGI (RXF 393 renal): > 100 µM
- TGI (SF-268 CNS): > 100 µM
- TGI (SF-295 CNS): > 100 µM
- TGI (SF-539 CNS): > 100 µM
- TGI (SK-MEL-2 melanoma): > 100 µM
- TGI (SK-MEL-28 melanoma): > 100 µM
- TGI (SK-MEL-5 melanoma): > 100 µM
- TGI (SK-OV-3 ovarian): > 100 µM
- TGI (SN12C renal): > 100 µM
- TGI (SNB-19 CNS): > 100 µM
- TGI (SNB-75 CNS): > 100 µM
- TGI (SR leukemia): 93.8 µM
- TGI (SW-620 colon): > 100 µM
- TGI (T-47D breast): > 100 µM
- TGI (TK-10 renal): 73 µM
- TGI (U251 CNS): > 100 µM
- TGI (UACC-257 melanoma): > 100 µM
- TGI (UACC-62 melanoma): 57.3 µM
- TGI (UO-31 renal): > 100 µM

SMILES: C#Cc1ccc(-n2c(/C=C/c3ccc(C(F)(F)F)cc3)nc3ncccc3c2=O)cc1
- GI50 (786-0 renal): 2.06 µM
- TGI (786-0 renal): 3.7 µM
- GI50 (A498 renal): 2.34 µM
- TGI (A498 renal): 5.76 µM
- GI50 (A549 NSCLC): 1.83 µM
- TGI (A549 NSCLC): 4.56 µM
- GI50 (ACHN renal): 1.71 µM
- TGI (ACHN renal): 3.26 µM
- GI50 (BT-549 breast): 1.71 µM
- TGI (BT-549 breast): 3.37 µM
- GI50 (CAKI-1 renal): 2.26 µM
- TGI (CAKI-1 renal): 6.22 µM
- GI50 (CCRF-CEM leukemia): 1.95 µM
- TGI (CCRF-CEM leukemia): > 100 µM
- GI50 (COLO 205 colon): 2.23 µM
- TGI (COLO 205 colon): 4.48 µM
- GI50 (DU-145 prostate): 3.76 µM
- TGI (DU-145 prostate): 12.2 µM
- GI50 (HCC-2998 colon): 1.96 µM
- TGI (HCC-2998 colon): 3.47 µM
- GI50 (HCT-116 colon): 1.63 µM
- TGI (HCT-116 colon): 3.02 µM
- GI50 (HCT-15 colon): 1.74 µM
- TGI (HCT-15 colon): 3.68 µM
- GI50 (HL-60(TB) leukemia): 2.07 µM
- TGI (HL-60(TB) leukemia): 6.07 µM
- GI50 (HOP-62 NSCLC): 2.43 µM
- TGI (HOP-62 NSCLC): 5.11 µM
- GI50 (HOP-92 NSCLC): 1.32 µM
- TGI (HOP-92 NSCLC): 3.44 µM
- GI50 (HS 578T breast): 3.46 µM
- TGI (HS 578T breast): > 100 µM
- GI50 (HT29 colon): 2.03 µM
- TGI (HT29 colon): 3.95 µM
- GI50 (IGROV1 ovarian): 1.96 µM
- TGI (IGROV1 ovarian): 4.02 µM
- GI50 (K-562 leukemia): 2.96 µM
- TGI (K-562 leukemia): 8.71 µM
- GI50 (KM12 colon): 1.79 µM
- TGI (KM12 colon): 3.44 µM
- GI50 (LOX IMVI melanoma): 1.89 µM
- TGI (LOX IMVI melanoma): 4.29 µM
- GI50 (M14 melanoma): 2.07 µM
- TGI (M14 melanoma): 4.27 µM
- GI50 (MALME-3M melanoma): 1.64 µM
- TGI (MALME-3M melanoma): 3.57 µM
- GI50 (MCF7 breast): 2.49 µM
- TGI (MCF7 breast): 10.2 µM
- GI50 (MDA-MB-231 breast): 2.05 µM
- TGI (MDA-MB-231 breast): 5.47 µM
- GI50 (MDA-MB-435): 2.27 µM
- TGI (MDA-MB-435): 6.48 µM
- GI50 (MOLT-4 leukemia): 3.01 µM
- TGI (MOLT-4 leukemia): 8.81 µM
- GI50 (NCI-H226 lung): 1.99 µM
- TGI (NCI-H226 lung): 4.09 µM
- GI50 (NCI-H23 lung): 3.9 µM
- TGI (NCI-H23 lung): 19 µM
- GI50 (NCI-H460 lung): 1.98 µM
- TGI (NCI-H460 lung): 4.13 µM
- GI50 (NCI-H522 lung): 1.65 µM
- TGI (NCI-H522 lung): 3.08 µM
- GI50 (NCI/ADR-RES ovarian): 2.5 µM
- TGI (NCI/ADR-RES ovarian): 7 µM
- GI50 (OVCAR-3 ovarian): 1.67 µM
- TGI (OVCAR-3 ovarian): 3.17 µM
- GI50 (OVCAR-4 ovarian): 1.58 µM
- TGI (OVCAR-4 ovarian): 3.29 µM
- GI50 (OVCAR-5 ovarian): 1.94 µM
- TGI (OVCAR-5 ovarian): 3.56 µM
- GI50 (OVCAR-8 ovarian): 1.87 µM
- TGI (OVCAR-8 ovarian): 4.67 µM
- GI50 (PC-3 prostate): 1.96 µM
- TGI (PC-3 prostate): 6.31 µM
- GI50 (RPMI-8226 leukemia): 1.39 µM
- TGI (RPMI-8226 leukemia): 6.28 µM
- GI50 (RXF 393 renal): 1.79 µM
- TGI (RXF 393 renal): 3.79 µM
- GI50 (SF-268 CNS): 2.27 µM
- TGI (SF-268 CNS): 5.95 µM
- GI50 (SF-539 CNS): 1.68 µM
- TGI (SF-539 CNS): 3.17 µM
- GI50 (SK-MEL-2 melanoma): 2.03 µM
- TGI (SK-MEL-2 melanoma): 4.09 µM
- GI50 (SK-MEL-28 melanoma): 1.78 µM
- TGI (SK-MEL-28 melanoma): 3.26 µM
- GI50 (SK-MEL-5 melanoma): 1.49 µM
- TGI (SK-MEL-5 melanoma): 2.87 µM
- GI50 (SK-OV-3 ovarian): 3.61 µM
- TGI (SK-OV-3 ovarian): 13.4 µM
- GI50 (SN12C renal): 2.08 µM
- TGI (SN12C renal): 5.63 µM
- GI50 (SNB-19 CNS): 1.91 µM
- TGI (SNB-19 CNS): 4.25 µM
- GI50 (SNB-75 CNS): 1.81 µM
- TGI (SNB-75 CNS): 7.22 µM
- GI50 (SR leukemia): 2 µM
- TGI (SR leukemia): 8.08 µM
- GI50 (SW-620 colon): 1.92 µM
- TGI (SW-620 colon): 3.76 µM
- GI50 (T-47D breast): 2.02 µM
- TGI (T-47D breast): 4.97 µM
- GI50 (TK-10 renal): 2.19 µM
- TGI (TK-10 renal): 3.7 µM
- GI50 (U251 CNS): 1.67 µM
- TGI (U251 CNS): 3.13 µM
- GI50 (UACC-257 melanoma): 1.56 µM
- TGI (UACC-257 melanoma): 2.95 µM
- GI50 (UACC-62 melanoma): 1.62 µM
- TGI (UACC-62 melanoma): 3.61 µM
- GI50 (UO-31 renal): 1.43 µM
- TGI (UO-31 renal): 3.67 µM
